The record followed here is PubChem BioAssay AID250 (DTP/NCI, 2004).

Values joined by “and” are separate entries in the source; they are usually repeats but may differ in a detail not shown here. Equal entries are not always repeated. Toxic doses and inconclusive results are not listed.

This assay concerns BDF1 mice, L1210 leukemia sc, survival T/C. Briefly: NCI In Vivo Anticancer Drug Screen. Data for tumor model L1210 Leukemia (subcutaneous) in B6D2F1 (BDF1) mice. The note with it: higher = longer survival. An outline of the steps: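 Read-out: T/C ratio, i.e. survival or tumor size in treated mice over that in vehicle-treated controls, from mice bearing transplantable tumors.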

[1] abbreviates: endpoint: median survival time, dose: 39.0 mg/kg/injection, schedule: Q01DX Z (sc), vehicle: saline.
Where [2] appears, read: endpoint: median survival time, dose: 65.0 mg/kg/injection, schedule: Q01DX Z (sc), vehicle: saline.
[3] abbreviates: endpoint: median survival time, dose: 108.0 mg/kg/injection, schedule: Q01DX Z (sc), vehicle: saline.
[4] abbreviates: endpoint: median survival time, dose: 180.0 mg/kg/injection, schedule: Q01DX Z (sc), vehicle: saline.
The mark [5] stands for this setting: endpoint: median survival time, dose: 300.0 mg/kg/injection, schedule: Q01DX Z (sc), vehicle: saline.
Where [6] appears, read: endpoint: median survival time, dose: 500.0 mg/kg/injection, schedule: Q01DX Z (sc), vehicle: saline.
Where [7] appears, read: endpoint: median survival time, dose: 833.0 mg/kg/injection, schedule: Q01DX Z (sc), vehicle: saline.
Where [8] appears, read: endpoint: median survival time, dose: 1388.0 mg/kg/injection, schedule: Q01DX Z (sc), vehicle: saline.

`O=C1CN(CCN2CC(=O)NC(=O)C2)CC(=O)N1`: the T/C is, setting by setting: (endpoint: median survival time, dose: 8.4 mg/kg/injection, schedule: Q03HX024 (sc), vehicle: Klucel (hydroxypropylcellulose) (HPC)) 160 % of control; (endpoint: median survival time, dose: 12.5 mg/kg/injection, schedule: Q01DX009 (ip), vehicle: steriod suspending solution) 115 % of control; (endpoint: median survival time, dose: 12.5 mg/kg/injection, schedule: Q01DX009 (sc), vehicle: steriod suspending solution) 110 % of control; (endpoint: median survival time, dose: 23.0 mg/kg/injection, schedule: Q03HX024 (sc), vehicle: Klucel (hydroxypropylcellulose) (HPC)) 165 % of control; (endpoint: median survival time, dose: 25.0 mg/kg/injection, schedule: Q01DX009 (ip), vehicle: steriod suspending solution) 120 % of control; (endpoint: median survival time, dose: 25.0 mg/kg/injection, schedule: Q01DX009 (sc), vehicle: steriod suspending solution) 100 % of control. The T/C is 120 % of control (endpoint: median survival time, dose: 39.0 mg/kg/injection, schedule: Q03HX024 (sc), vehicle: Klucel (hydroxypropylcellulose) (HPC)); 120 % of control (endpoint: median survival time, dose: 65.0 mg/kg/injection, schedule: Q03HX024 (sc), vehicle: Klucel (hydroxypropylcellulose) (HPC)); 165 % of control (endpoint: median survival time, dose: 100.0 mg/kg/injection, schedule: Q01DX009 (ip), vehicle: steriod suspending solution); 105 % of control and 120 % of control (endpoint: median survival time, dose: 100.0 mg/kg/injection, schedule: Q01DX009 (sc), vehicle: steriod suspending solution); 105 % of control (endpoint: median survival time, dose: 100.0 mg/kg/injection, schedule: Q04DX003 (ip), vehicle: steriod suspending solution); 100 % of control and 110 % of control (endpoint: median survival time, dose: 100.0 mg/kg/injection, schedule: Q04DX003 (sc), vehicle: steriod suspending solution). Moreover, the T/C was 100 % of control (endpoint: median survival time, dose: 200.0 mg/kg/injection, schedule: Q01DX009 (ip), vehicle: steriod suspending solution); 90 % of control (endpoint: median survival time, dose: 200.0 mg/kg/injection, schedule: Q01DX009 (sc), vehicle: steriod suspending solution); 100 % of control (endpoint: median survival time, dose: 200.0 mg/kg/injection, schedule: Q04DX003 (ip), vehicle: steriod suspending solution); 105 % of control and 115 % of control (endpoint: median survival time, dose: 200.0 mg/kg/injection, schedule: Q04DX003 (sc), vehicle: steriod suspending solution); 120 % of control (endpoint: median survival time, dose: 300.0 mg/kg/injection, schedule: Q01DX009 (sc), vehicle: Klucel (hydroxypropylcellulose) (HPC)); 100 % of control (endpoint: median survival time, dose: 400.0 mg/kg/injection, schedule: Q04DX003 (sc), vehicle: steriod suspending solution). Also, the T/C is 120 % of control (endpoint: median survival time, dose: 500.0 mg/kg/injection, schedule: Q01DX009 (sc), vehicle: Klucel (hydroxypropylcellulose) (HPC)); 100 % of control and 120 % of control (endpoint: median survival time, dose: 800.0 mg/kg/injection, schedule: Q04DX003 (sc), vehicle: steriod suspending solution).

In the case of `CCNC(=O)c1cccnc1`, the T/C (endpoint: median survival time, dose: 8.4 mg/kg/injection, schedule: Q01DX Z (sc), vehicle: water) was 100 % of control; the T/C (endpoint: median survival time, dose: 77.8 mg/kg/injection, schedule: Q01DX Z (sc), vehicle: water) is 100 % of control; the T/C (endpoint: median survival time, dose: 130.0 mg/kg/injection, schedule: Q01DX Z (sc), vehicle: water) was 95 % of control; the T/C (endpoint: median survival time, dose: 216.0 mg/kg/injection, schedule: Q01DX Z (sc), vehicle: water) was 100 % of control; the T/C (endpoint: median survival time, dose: 360.0 mg/kg/injection, schedule: Q01DX Z (sc), vehicle: water) is 100 % of control; the T/C (endpoint: median survival time, dose: 600.0 mg/kg/injection, schedule: Q01DX Z (sc), vehicle: water) was 100 % of control. Besides, under “endpoint: median survival time, dose: 1000.0 mg/kg/injection, schedule: Q01DX Z (sc), vehicle: water”, the T/C is 109 % of control.

Consider `CN(C)c1nc(N(C)C)nc(N(C)C)n1`, for which the T/C is 100 % of control under setting [1]; 100 % of control under setting [2]; 100 % of control under setting [3]; 100 % of control under setting [4]; 95 % of control and 105 % of control under setting [5]; 95 % of control under setting [6]. Besides, the T/C was 110 % of control under setting [7] and 100 % of control under setting [8].

Regarding `COC(=O)Nc1nc2ccc(C(=O)c3cccs3)cc2[nH]1`, the T/C reads like this: (endpoint: median survival time, dose: 50.0 mg/kg/injection, schedule: Q04DX003 (ip), vehicle: other) 118 % of control; (endpoint: median survival time, dose: 70.0 mg/kg/injection, schedule: Q04DX003 (iv), vehicle: other) 161 % of control; (endpoint: median survival time, dose: 100.0 mg/kg/injection, schedule: Q04DX003 (iv), vehicle: other) 151 % of control.

As for `Nc1ccc(OC(=O)Oc2ccc(N)cc2)cc1`, the T/C is 111 % of control (endpoint: median survival time, dose: 180.0 mg/kg/injection, schedule: Q01DX Z (sc), vehicle: carboxymethylcellulose (CMC)) and 100 % of control (endpoint: median survival time, dose: 833.0 mg/kg/injection, schedule: Q01DX Z (sc), vehicle: carboxymethylcellulose (CMC)).

On to `COc1cc(NS(C)(=O)=O)ccc1Nc1c2cccc(C)c2nc2c(C)cccc12`, for which the T/C is 100 % of control (endpoint: mean survival time, dose: 6.25 mg/kg/injection, schedule: Q01DX009 (ip), vehicle: Klucel (hydroxypropylcellulose) (HPC)); 103 % of control (endpoint: mean survival time, dose: 12.5 mg/kg/injection, schedule: Q01DX009 (ip), vehicle: Klucel (hydroxypropylcellulose) (HPC)); 102 % of control (endpoint: mean survival time, dose: 25.0 mg/kg/injection, schedule: Q01DX009 (ip), vehicle: Klucel (hydroxypropylcellulose) (HPC)); 103 % of control (endpoint: mean survival time, dose: 50.0 mg/kg/injection, schedule: Q01DX009 (ip), vehicle: Klucel (hydroxypropylcellulose) (HPC)).

For `O=c1[nH]c(=O)n(C2OC(CO)C(O)C2O)cc1I` (centres undefined), the T/C under setting [1] is 100 % of control; the T/C under setting [2] was 100 % of control; the T/C under setting [3] was 100 % of control; the T/C under setting [4] was 94 % of control and 100 % of control; the T/C under setting [5] is 100 % of control; the T/C under setting [6] is 100 % of control and 105 % of control. Further, the T/C under setting [7] was 94 % of control and the T/C under setting [8] is 94 % of control.

Regarding `Nc1ncnc2[nH]ncc12`, the T/C runs as follows: (endpoint: median survival time, dose: 3.0 mg/kg/injection, schedule: Q01DX Z (sc), vehicle: methylcellulose (MC)) 100 % of control; (endpoint: median survival time, dose: 5.0 mg/kg/injection, schedule: Q01DX Z (sc), vehicle: methylcellulose (MC)) 112 % of control; (endpoint: median survival time, dose: 8.4 mg/kg/injection, schedule: Q01DX Z (sc), vehicle: methylcellulose (MC)) 112 % of control and 115 % of control; (endpoint: median survival time, dose: 14.0 mg/kg/injection, schedule: Q01DX Z (sc), vehicle: methylcellulose (MC)) 108 % of control; (endpoint: median survival time, dose: 23.3 mg/kg/injection, schedule: Q01DX Z (sc), vehicle: methylcellulose (MC)) 91 % of control; (endpoint: median survival time, dose: 38.9 mg/kg/injection, schedule: Q01DX Z (sc), vehicle: methylcellulose (MC)) 120 % of control. For the same compound, the T/C is, setting by setting: (endpoint: median survival time, dose: 46.8 mg/kg/injection, schedule: Q01DX Z (sc), vehicle: methylcellulose (MC)) 116 % of control; (endpoint: median survival time, dose: 64.8 mg/kg/injection, schedule: Q01DX Z (sc), vehicle: methylcellulose (MC)) 100 % of control; (endpoint: median survival time, dose: 78.0 mg/kg/injection, schedule: Q01DX Z (sc), vehicle: methylcellulose (MC)) 100 % of control; (endpoint: median survival time, dose: 108.0 mg/kg/injection, schedule: Q01DX Z (sc), vehicle: methylcellulose (MC)) 100 % of control; (endpoint: median survival time, dose: 130.0 mg/kg/injection, schedule: Q01DX Z (sc), vehicle: methylcellulose (MC)) 91 % of control; (endpoint: median survival time, dose: 180.0 mg/kg/injection, schedule: Q01DX Z (sc), vehicle: methylcellulose (MC)) 100 % of control. Further, the T/C (endpoint: median survival time, dose: 300.0 mg/kg/injection, schedule: Q01DX Z (sc), vehicle: methylcellulose (MC)) was 100 % of control.

Turning to `CC(=O)OCC1OC(n2ccc(N)nc2=O)C(OC(C)=O)C1OC(C)=O` (centres undefined), the T/C was 220 % of control (endpoint: median survival time, dose: 20.0 mg/kg/injection, schedule: Q01DX Z (oral), vehicle: carboxymethylcellulose (CMC)); 290 % of control (endpoint: median survival time, dose: 20.0 mg/kg/injection, schedule: Q01DX Z (sc), vehicle: carboxymethylcellulose (CMC)); 255 % of control (endpoint: median survival time, dose: 40.0 mg/kg/injection, schedule: Q01DX Z (oral), vehicle: carboxymethylcellulose (CMC)); 360 % of control (endpoint: median survival time, dose: 40.0 mg/kg/injection, schedule: Q01DX Z (sc), vehicle: carboxymethylcellulose (CMC)); 270 % of control (endpoint: median survival time, dose: 80.0 mg/kg/injection, schedule: Q01DX Z (oral), vehicle: carboxymethylcellulose (CMC)); 360 % of control (endpoint: median survival time, dose: 80.0 mg/kg/injection, schedule: Q01DX Z (sc), vehicle: carboxymethylcellulose (CMC)). In addition, the T/C runs as follows: (endpoint: median survival time, dose: 160.0 mg/kg/injection, schedule: Q01DX Z (oral), vehicle: carboxymethylcellulose (CMC)) 260 % of control; (endpoint: median survival time, dose: 160.0 mg/kg/injection, schedule: Q01DX Z (sc), vehicle: carboxymethylcellulose (CMC)) 225 % of control; (endpoint: median survival time, dose: 320.0 mg/kg/injection, schedule: Q01DX Z (oral), vehicle: carboxymethylcellulose (CMC)) 320 % of control.
